Here are results for twelve compounds from patent US20230382924A1, “MODULATORS OF CYSTIC FIBROSIS TRANSMEMBRANE CONDUCTANCE REGULATOR” (VERTEX PHARMACEUTICALS INCORPORATED, priority 2020, published 2023).

pEC50: −log10 of the molar value. Like-named read-outs stand apart in the source and are kept apart here.

The target in one series is T1, F508del (Homo sapiens, UniProt P13569, DEL508-508).
T1 construct: expressed in transfected cells
Put plainly: 3T3 assay: membrane potential optical assay for F508del correction in NIH 3T3 cells. The series is classed as cell-based. The essentials:
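NIH 3T3 mouse fibroblasts stably expressing F508del were incubated with corrector compounds at a range of concentrations for 16–24 h at 37° C, then loaded with a redistribution voltage-sensing dye. A single addition of forskolin under a chloride gradient (gluconate-substituted bath, pH 7.4) gave the membrane-potential response, read by FLIPR.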

The target of series [1] is T2, CFTR (Homo sapiens, UniProt P13569). The series can be described thus: Membrane Potential Dye, Enteroid Assay A. The series is classed as cell-based. The settings on record: for pEC50: read-out: Ent. A EC50. The essentials:
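Enteroid cells were loaded with methyl oxonol membrane potential dye (plus CaCCinh-A01 and Chicago Sky Blue) for 25 min at room temperature. Chloride transport was started by switching to chloride-free gluconate stimulation solution, with fluorescence read for 15 min. Activity was expressed as % of a triple-combination CFTR modulator control (3 μM, 3 μM, 300 nM acute).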

Series [2] has as its target T2, CFTR. The series can be described thus: Membrane Potential Dye, Enteroid Assay B. The series is classed as cell-based. The settings on record: for pEC50: read-out: Ent. B EC50. The essentials:
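Enteroid cells loaded 25 min at room temperature with 20 μM methyl oxonol plus 30 μM CaCCinh-A01 and 30 μM Chicago Sky Blue, then switched to chloride-free gluconate buffer. Chloride transport was started by chloride-free stimulation solution, with fluorescence read for 15 min.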

Setting [3] is: NIH 3T3 cells, F508del correction.

T1 sequence (P13569 with tags, fused parts or gaps DEL508-508): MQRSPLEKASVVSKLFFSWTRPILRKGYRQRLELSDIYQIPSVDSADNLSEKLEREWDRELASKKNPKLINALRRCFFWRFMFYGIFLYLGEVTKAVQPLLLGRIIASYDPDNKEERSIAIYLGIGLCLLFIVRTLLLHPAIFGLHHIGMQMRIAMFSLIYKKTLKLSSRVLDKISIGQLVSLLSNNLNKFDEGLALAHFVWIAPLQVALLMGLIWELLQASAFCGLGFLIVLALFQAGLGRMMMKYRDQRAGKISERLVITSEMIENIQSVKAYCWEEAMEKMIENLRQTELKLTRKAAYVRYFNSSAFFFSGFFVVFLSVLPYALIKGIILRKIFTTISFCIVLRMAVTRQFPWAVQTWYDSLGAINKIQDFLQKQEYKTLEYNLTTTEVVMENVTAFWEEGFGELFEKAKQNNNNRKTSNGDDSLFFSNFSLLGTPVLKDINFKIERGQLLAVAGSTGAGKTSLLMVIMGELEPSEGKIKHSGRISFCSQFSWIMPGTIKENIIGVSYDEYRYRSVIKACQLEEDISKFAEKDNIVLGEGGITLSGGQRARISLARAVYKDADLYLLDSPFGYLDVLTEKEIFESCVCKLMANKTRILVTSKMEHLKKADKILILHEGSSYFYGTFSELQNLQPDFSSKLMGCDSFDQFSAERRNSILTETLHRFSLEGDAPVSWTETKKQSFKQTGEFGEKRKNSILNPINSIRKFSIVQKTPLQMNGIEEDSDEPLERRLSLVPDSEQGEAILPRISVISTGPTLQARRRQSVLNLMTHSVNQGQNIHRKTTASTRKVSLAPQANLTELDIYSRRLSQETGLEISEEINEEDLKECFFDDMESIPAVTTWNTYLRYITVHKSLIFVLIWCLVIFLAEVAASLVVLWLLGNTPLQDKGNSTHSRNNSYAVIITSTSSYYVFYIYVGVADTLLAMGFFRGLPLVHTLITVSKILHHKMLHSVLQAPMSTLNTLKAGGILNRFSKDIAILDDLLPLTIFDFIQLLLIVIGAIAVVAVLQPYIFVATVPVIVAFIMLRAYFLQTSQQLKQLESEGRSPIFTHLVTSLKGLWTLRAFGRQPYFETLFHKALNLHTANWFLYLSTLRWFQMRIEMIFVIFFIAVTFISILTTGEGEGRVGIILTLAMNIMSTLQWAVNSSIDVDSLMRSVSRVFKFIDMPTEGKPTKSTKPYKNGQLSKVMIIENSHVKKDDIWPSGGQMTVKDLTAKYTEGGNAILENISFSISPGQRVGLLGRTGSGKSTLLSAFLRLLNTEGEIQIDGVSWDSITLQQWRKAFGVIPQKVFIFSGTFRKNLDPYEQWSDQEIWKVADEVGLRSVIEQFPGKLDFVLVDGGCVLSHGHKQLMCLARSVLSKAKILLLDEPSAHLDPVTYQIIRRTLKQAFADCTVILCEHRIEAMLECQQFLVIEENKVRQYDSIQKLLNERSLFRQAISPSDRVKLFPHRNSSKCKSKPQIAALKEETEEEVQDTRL
T2 sequence (P13569 with tags, fused parts or gaps DEL508-508): as above

For the compound `Cc1cccc(C)c1-c1cc2nc(n1)NS(=O)(=O)c1cccc(c1)C(=O)N[C@H](CCC(C)C)CO2` [Compound 46, (11R)-6-(2,6-dimethylphenyl)-11-(3-methylbutyl)-9-oxa-2λ^6-thia-3,5,12,19-tetraazatricyclo[12.3.1.14,8]nonadeca-1(17),4,6,8(19),14(18),15-hexaene-2,2,13-trione], the pEC50 at F508del (setting [3]) and on CFTR [1] (Enteroid Assay A) was > 6.00 each time. The compound further showed a ring closure, yield after HPLC (from Cc1cccc(C)c1-c1cc(OC[C@H](N)CCC(C)C)nc(NS(=O)(=O)c2cccc(C(=O)O)c2)n1, amide bond, 13-membered ring, HATU/DIEA, DMF, 9.1 mM, 25.0 °C, 1.0 h, 3 steps) of 3%. Moreover, the “Ent. A Max Activity” value on CFTR [1] (Enteroid Assay A) is listed as “+++ (+++ is >600%)”.

In turn, `Cc1cccc(C)c1-c1cc2nc(n1)NS(=O)(=O)c1cccc(c1)C(=O)NC[C@@H](C)O2` [Compound 28, (10R)-6-(2,6-dimethylphenyl)-10-methyl-2,2-dioxo-9-oxa-2λ^6-thia-3,5,12,19-tetrazatricyclo[12.3.1.14,8]nonadeca-1(18),4(19),5,7,14,16-hexaen-13-one] registered a ring closure, yield after HPLC (from Cc1cccc(C)c1-c1cc(O[C@H](C)CN)nc(NS(=O)(=O)c2cccc(C(=O)O)c2)n1, amide bond, 13-membered ring, HATU/DIEA, DMF, 46.7 mM, 25.0 °C, 1.0 h, 2 steps) of 46%. At CFTR [2] (Enteroid Assay B), the “Ent. B Max Activity” value is “++ (++ is 30-60%)” and the pEC50 – broadly, the EC50 on a negative log10 scale, so that one unit is a factor of ten – is 4.52 to 5.52. Besides, at CFTR [1] (Enteroid Assay A), the “Ent. A Max Activity” value was “+++ (+++ is >600%)” and the pEC50 was 4.52 to 5.52.

For `Cc1cccc(C)c1-c1cc2nc(n1)NS(=O)(=O)c1cccc(c1)C(=O)N[C@H](CC(C)C)CO2` [Compound 96, (11R)-6-(2,6-Dimethylphenyl)-11-isobutyl-2,2-dioxo-9-oxa-2λ^6-thia-3,5,12,19-tetrazatricyclo[12.3.1.14,8]nonadeca-1(18),4(19),5,7,14,16-hexaen-13-one], the pEC50 on F508del (setting [3]), on CFTR [2] (Enteroid Assay B) and on CFTR [1] (Enteroid Assay A) was > 6.00 each time. This compound also gave a ring closure, yield after HPLC (from Cc1cccc(C)c1-c1cc(OC[C@H](N)CC(C)C)nc(NS(=O)(=O)c2cccc(C(=O)O)c2)n1, amide bond, 13-membered ring, HATU/TEA, DMF, 31.8 mM, 25.0 °C, 3.0 h) of 57%. Also, at CFTR [1] (Enteroid Assay A), the “Ent. A Max Activity” value is “+++ (+++ is >600%)”.

For `Cc1cccc(C)c1-c1cc2nc(n1)NS(=O)(=O)c1cccc(c1C)C(=O)N[C@H](CC1CCCCC1)CO2` [Compound 75, (11R)-11-(Cyclohexylmethyl)-6-(2,6-dimethylphenyl)-18-methyl-9-oxa-2λ^6-thia-3,5,12,19-tetraazatricyclo[12.3.1.14,8]nonadeca-1(17),4(19),5,7,14(18),15-hexaene-2,2,13-trione], the Emax on F508del (NIH3T3, Table 8, read-out: 3T3 Max Activity) is > 60%. Besides, the pEC50 on F508del (Table 8) is > 6.00. The compound further returned a ring closure, yield after HPLC (from Cc1cccc(C)c1-c1cc(OC[C@H](N)CC2CCCCC2)nc(NS(=O)(=O)c2cccc(C(=O)O)c2C)n1, amide bond, 13-membered ring, HATU/TEA, DMF, 40.1 mM, 0.42 h) of 8%. Besides, at CFTR [1] (Table 8), the “Ent. A Max Activity” value is on record as “+++ (+++ is >60%)” and the pEC50 is > 6.00.

With `Cc1cccc(C)c1-c1cc2nc(n1)NS(=O)(=O)c1cccc(c1)C(=O)N[C@H](CC1CCC1)CO2` [Compound 113, (11R)-11-(cyclobutylmethyl)-6-(2,6-dimethylphenyl)-9-oxa-2λ^6-thia-3,5,12,19-tetraazatricyclo[12.3.1.14,8]nonadeca-1(17),4,6,8(19),14(18),15-hexaene-2,2,13-trione], the pEC50 on F508del (setting [3]) was > 6.00. The same compound showed a ring closure, yield after HPLC (from Cc1cccc(C)c1-c1cc(OC[C@H](N)CC2CCC2)nc(NS(=O)(=O)c2cccc(C(=O)O)c2)n1, amide bond, 13-membered ring, HATU/DIEA, DMF, 65.5 mM, 25.0 °C, 1.0 h, 2 steps) of 21%. In addition, at CFTR [1] (Enteroid Assay A), the “Ent. A Max Activity” value was “+++ (+++ is >600%)” and the pEC50 was > 6.00.

For the compound `Cc1cccc(C)c1-c1cc2nc(n1)NS(=O)(=O)c1cc(n(C)n1)C(=O)N[C@H](CC(C)C)CO2` [Compound 76, (10R)-15-(2,6-Dimethylphenyl)-10-isobutyl-6-methyl-3,3-dioxo-12-oxa-3λ^6-thia-2,5,6,9,16,17-hexazatricyclo[11.3.1.14,7]octadeca-1(17),4,7(18),13,15-pentaen-8-one], under “from Cc1cccc(C)c1-c1cc(OC[C@H](N)CC(C)C)nc(NS(=O)(=O)c2cc(C(=O)O)n(C)n2)n1, amide bond, 13-membered ring, HATU/DIEA, DMF, 3.1 mM, 25.0 °C, 2.0 h”, the ring closure, yield after HPLC is 33%. Further, at CFTR [2] (Table 9), the “Ent. B Max Activity” value is “+++ (+++ is >60%)” and the negative logarithm of the EC50 (pEC50) was 5.52 to 6.00.

For the compound `Cc1cccc(C)c1-c1cc2nc(n1)NS(=O)(=O)c1cncc(n1)C(=O)N[C@H](CC(C)C)CO2` [Compound 70, (11R)-6-(2,6-dimethylphenyl)-11-isobutyl-2,2-dioxo-9-oxa-2λ^6-thia-3,5,12,16,18,19-hexazatricyclo[12.3.1.14,8]nonadeca-1(18),4(19),5,7,14,16-hexaen-13-one], for the setting “from Cc1cccc(C)c1-c1cc(OC[C@H](N)CC(C)C)nc(NS(=O)(=O)c2cncc(C(=O)O)n2)n1, amide bond, 13-membered ring, HATU/DIEA, DMF, 18.6 mM, 25.0 °C, 25.0 h”, the ring closure, yield after HPLC was determined as 29%. Further, on CFTR [2] (Table 9), the “Ent. B Max Activity” value was “+++ (+++ is >60%)” and the pEC50 is > 6.00.

On to `Cc1cc2cc(c1)S(=O)(=O)Nc1nc(cc(-c3c(C)cccc3C)n1)OC[C@@H](CC1CCCCC1)NC2=O` [Compound 74, (11R)-11-(Cyclohexylmethyl)-6-(2,6-dimethylphenyl)-16-methyl-2,2-dioxo-9-oxa-2λ^6-thia-3,5,12,19-tetrazatricyclo[12.3.1.14,8]nonadeca-1(18),4(19),5,7,14,16-hexaen-13-one], for which the pEC50 at F508del (setting [3]) is > 6.00. In addition, the ring closure, yield after HPLC (from Cc1cc(C(=O)O)cc(S(=O)(=O)Nc2nc(OC[C@H](N)CC3CCCCC3)cc(-c3c(C)cccc3C)n2)c1, amide bond, 13-membered ring, HATU/TEA, DMF, 39.0 mM, 0.42 h) was determined as 28%. On CFTR [1] (Enteroid Assay A), the “Ent. A Max Activity” value is listed as “+++ (+++ is >600%)” and the pEC50 is > 6.00.

For the compound `Cc1cccc(C)c1-c1cc2nc(n1)NS(=O)(=O)c1cccc(c1)C(=O)NC[C@@H](c1ccccc1)O2` [Compound 25, (10R)-6-(2,6-Dimethylphenyl)-2,2-dioxo-10-phenyl-9-oxa-2λ^6-thia-3,5,12,19-tetrazatricyclo[12.3.1.14,8]nonadeca-1(18),4(19),5,7,14,16-hexaen-13-one], the ring closure, yield after HPLC (from Cc1cccc(C)c1-c1cc(O[C@@H](CN)c2ccccc2)nc(NS(=O)(=O)c2cccc(C(=O)O)c2)n1, amide bond, 13-membered ring, HATU/DIEA, DMF, 25.9 mM, 25.0 °C, 1.0 h, 2 steps) stood at 23%. At CFTR [2] (Enteroid Assay B), the “Ent. B Max Activity” value is reported as “++ (++ is 30-60%)” and the pEC50 is > 6.00. Moreover, at CFTR [1] (Enteroid Assay A), the “Ent. A Max Activity” value was “+++ (+++ is >600%)” and the negative-log EC50 (pEC50) was > 6.00.

Under “from Cc1cccc(C)c1-c1cc(OC[C@H](N)CC2CC2)nc(NS(=O)(=O)c2cccc(C(=O)O)c2)n1, amide bond, 13-membered ring, HATU/TEA, DMF, 18.8 mM, 17.0 h”, `Cc1cccc(C)c1-c1cc2nc(n1)NS(=O)(=O)c1cccc(c1)C(=O)N[C@H](CC1CC1)CO2` [Compound 114, (11R)-11-(Cyclopropylmethyl)-6-(2,6-dimethylphenyl)-9-oxa-2λ^6-thia-3,5,12,19-tetraazatricyclo[12.3.1.14,8]nonadeca-1(17),4(19),5,7,14(18),15-hexaene-2,2,13-trione] registered a ring closure, yield after HPLC of 61%. In addition, at CFTR [1] (Enteroid Assay A), the “Ent. A Max Activity” value is “+++ (+++ is >600%)” and the negative logarithm of the EC50 (pEC50) is > 6.00.

For the compound `Cc1cccc(C)c1-c1cc2nc(n1)NS(=O)(=O)c1cccc(c1)NC(=O)Nc1cccc(c1)O2` [Compound 1, 5-(2,6-Dimethylphenyl)-9,9-dioxo-2-oxa-9λ^6-thia-6,8,15,17,24-pentazatetracyclo[16.3.1.13,7.110,14]tetracosa-1(21),3,5,7(24),10(23),11,13,18(22),19-nonaen-16-one], the pEC50 at F508del (setting [3]) was 5.52 to 6.00. In addition, the ring closure, yield after HPLC (from 3-amino-N-[4-(3-aminophenoxy)-6-(2,6-dimethylphenyl)pyrimidin-2-yl]benzenesulfonamide (Dihydrochloride salt), crosslinker bond, 15-membered ring, 1,3-dimethyl-tetrahydro-pyrimidin-2-one, 26.2 mM) came out at 13%. On CFTR [1] (Enteroid Assay A), the “Ent. A Max Activity” value is “++ (++ is 30-60%)” and the pEC50 is 5.52 to 6.00.

Take `COC[C@H]1NC(=O)c2cccc(c2)S(=O)(=O)Nc2nc(cc(-c3c(C)cccc3C)n2)OC1c1ccc(C(C)(C)C)cc1` (single isomer, unassigned) [Compound 45]: the ring closure, yield after HPLC (from COC[C@@H](N)[C@H](Oc1cc(-c2c(C)cccc2C)nc(NS(=O)(=O)c2cccc(C(=O)O)c2)n1)c1ccc(C(C)(C)C)cc1, amide bond, 13-membered ring, HATU/DIEA, DMF, 161.6 mM, 25.0 °C, 0.5 h) came out at 8%. The compound also gave a ring closure, yield after HPLC (from COC[C@@H](N)[C@H](Oc1cc(-c2c(C)cccc2C)nc(NS(=O)(=O)c2cccc(C(=O)O)c2)n1)c1ccc(C(C)(C)C)cc1, amide bond, 13-membered ring, HATU/DIEA, DMF, 162.0 mM, 0.5 h) of 10%. Also, at CFTR [1] (Table 9), the “Ent. A Max Activity” value is recorded as “+++ (+++ is >60%)” and the pEC50 was > 6.00.
